Results as given in patent US20070275936A1, “Formulations and Treatment Methods” (priority 1998, published 2007).

Test system: Circulating Hematologic Elements
Experiment: Human HIV clinical protocol: hematology
Assay type: in vivo
Method: Otherwise untreated patients with CD4 counts of ≧200/μL and HIV-1 viral RNA between 5,000 and 1,000,000 copies/mL (branched-DNA, version 3.0, Bayer, Tarrytown, N.Y.) provided informed consent and were enrolled into a Phase I/II dose-escalation study of the safety and efficacy of intramuscular injections of BrEA. The protocol was conducted in South Africa. In the first cohort, four patients received an initial injection of 1 mL (50 mg), followed by a safety and pharmocokinetic study for seven days, and then received five daily injections of 1 mL (50 mg). The second cohort of 8 patients was randomized in a 1:2 ratio to receive either 50 mg (1 mL) or 100 mg (2 mL) on the same schedule. Patients were allowed at the discretion of the investigators to receive up to three additional courses each, repeated after 28 days of observation. The protocol was amended to introduce an improved formulation, and to extend the initial pharmacokinetic and safety period to 14 days, the observation period following the five daily doses to 35 days, and to allow up to 7 treatment courses. A third cohort of 24 patients was randomized in a 1:2:4 ratio to receive either 50 mg (0.5 mL), 100 mg (1 mL), or 200 mg (2 mL) of BrEA. The patients were all male, since initial safety studies are not permitted in females in South Africa. Within the group of 39 patients randomized, the ethnic demographic included was 18 Caucasian, 17 African, and 4 other. The average age was 34 (range 20-63), the average initial CD4/μL was 434 (range 176-1210), and the average viral load was 13,772 copies/mL (range 3,020-158,489). Patients underwent physical examinations and provided samples for chemistry, hematology, virology and immunology testing approximately every two weeks.
The CD4^+ cell frequency was determined using the FACSCount test. The absolute frequency of a CD8^+ cell subset was calculated in a similar fashion. The absolute white blood cell (WBC) count was determined using an automated cell counter (Advia 120, Bayer, Tarrytown, N.Y.). The nucleated cell region was defined using a forward versus orthogonal scatter plot. The absolute frequency per μL of CD3^− Natural Killer or Dendritic Cell subsets (F) was estimated by the equation: F=(proportion of nucleated cells)×(absolute WBC count per μL).
Statistical analysis of changes in surface phenotypes, hematological, and viral parameters were performed by calculating the area under the curve (AUC) of the percentage difference from baselines (phenotype), percentage difference from the mean of screen and baseline values (hematology), or log10 change from the mean of screen and baseline values (plasma viral RNA) for individual patients. AUC were calculated using the actual number of days between analysis visits for each patient. Because patients were on study for varying periods of time, this value was normalized to the time-averaged AUC by dividing by the number of days of observation. The Student's t-test was then used to analyze the difference from zero for the AUCs from all patients with data available for each parameter. A significant increase in the AUC for the entire 5-month period was interpreted as a nonrandom change in the given parameter.
For these reasons, the time-averaged AUC values for the 5-month period underestimate the magnitude of the individual responses. Maximal individual patient responses were calculated as the mean of the maximal percentage changes from baselines for individual patients at any analysis visit after dosing.
To investigate the kinetics of the responses for the entire population related to the time after dosing, the maximum analysis visit responses were calculated as the average of the maxima of the mean percentage changes from baselines for each analysis visit. Due to the altered BrEA administration interval for cohort 3, the analysis visits were aligned relative to the last dosing visit.

C[C@]12CC[C@H](O)C[C@@H]1CC[C@@H]1[C@@H]2CC[C@]2(C)C(=O)[C@H](Br)C[C@@H]12 [BrEA, 16α-bromo-3β-hydroxy-5α-androstane-17-one]
Eosinophils: Maximum Analysis Visit Responses Mean (analysis visit day 22): 129% (22)
WBC: Maximum Analysis Visit Responses Mean (analysis visit day 81): 23% (81)
Basophils: Maximum Analysis Visit Responses Mean (analysis visit day 126): 113% (126)
Eosinophils: Maximum Individual Patient Responses Mean (range) (change from baseline, n=33): 110% (−37 to 656%)
Basophils: Maximum Individual Patient Responses Mean (range) (change from baseline, n=37): 182% (−20 to 1,100%)
Monocytes: Maximum Individual Patient Responses Mean (range) (change from baseline, n=37): 60% (−14 to 189%)
Neutrophils: Maximum Individual Patient Responses Mean (range) (change from baseline, n=37): 67% (−25 to 297%)
Platelets: Maximum Individual Patient Responses Mean (range) (change from baseline, n=37): 31% (0 to 122%)
WBC: Maximum Individual Patient Responses Mean (range) (change from baseline, n=37): 36% (−1 to 159%)
WBC: Time-averaged AUC Increase Mean ± SEM (i.m. BrEA, HIV patients, n=37, p=0.132): 4.4 ± 3%
Eosinophils: Time-averaged AUC Increase Mean ± SEM (n=33, p=0.086): 20 ± 11%
Platelets: Time-averaged AUC Increase Mean ± SEM (n=37, p<0.001): 7 ± 2%
Basophils: Time-averaged AUC Increase Mean ± SEM (n=37, p=0.001): 42 ± 12%
Neutrophils: Time-averaged AUC Increase Mean ± SEM (n=37, p=0.009): 11 ± 4%
Monocytes: Time-averaged AUC Increase Mean ± SEM (n=37, p=0.029): 10 ± 5%
